Experimental data taken from PubChem BioAssay (NCI).
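Where inhibition never reached the appropriate level, the endpoint shown equals the highest concentration tested. Otherwise, values were interpolated linearly from a five-concentration, 48-hour dose response in 96-well plates. Abbreviation: GI50, concentration required for 50% inhibition of growth. TGI is the concentration that stops growth completely.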

How the values were obtained:
Assay in all cases: inhibition of tumour cell growth, NCI panel, 48 h
TK-10 renal = system: TK-10 renal
MALME-3M melanoma = system: MALME-3M melanoma
UACC-257 melanoma = system: UACC-257 melanoma
786-0 renal = system: 786-0 renal
SN12C renal = system: SN12C renal
BT-549 breast = system: BT-549 breast
UO-31 renal = system: UO-31 renal
OVCAR-5 ovarian = system: OVCAR-5 ovarian
SF-295 CNS = system: SF-295 CNS
MDA-MB-468 breast = system: MDA-MB-468 breast
M14 melanoma = system: M14 melanoma
HOP-62 NSCLC = system: HOP-62 NSCLC
T-47D breast = system: T-47D breast
K-562 leukemia = system: K-562 leukemia
HT29 colon = system: HT29 colon
HS 578T breast = system: HS 578T breast
SK-MEL-5 melanoma = system: SK-MEL-5 melanoma
OVCAR-4 ovarian = system: OVCAR-4 ovarian
U251 CNS = system: U251 CNS
NCI-H460 lung = system: NCI-H460 lung
SK-OV-3 ovarian = system: SK-OV-3 ovarian
HCT-15 colon = system: HCT-15 colon
LOX IMVI melanoma = system: LOX IMVI melanoma
SNB-75 CNS = system: SNB-75 CNS
EKVX NSCLC = system: EKVX NSCLC
NCI-H522 lung = system: NCI-H522 lung
HCT-116 colon = system: HCT-116 colon
DU-145 prostate = system: DU-145 prostate
CAKI-1 renal = system: CAKI-1 renal
HL-60(TB) leukemia = system: HL-60(TB) leukemia
UACC-62 melanoma = system: UACC-62 melanoma
SK-MEL-28 melanoma = system: SK-MEL-28 melanoma
SR leukemia = system: SR leukemia
OVCAR-8 ovarian = system: OVCAR-8 ovarian
RXF 393 renal = system: RXF 393 renal
NCI/ADR-RES ovarian = system: NCI/ADR-RES ovarian
SF-539 CNS = system: SF-539 CNS
SW-620 colon = system: SW-620 colon
A498 renal = system: A498 renal
NCI-H23 lung = system: NCI-H23 lung
MOLT-4 leukemia = system: MOLT-4 leukemia
ACHN renal = system: ACHN renal
A549 NSCLC = system: A549 NSCLC
MCF7 breast = system: MCF7 breast
MDA-MB-231 breast = system: MDA-MB-231 breast
IGROV1 ovarian = system: IGROV1 ovarian
MDA-MB-435 = system: MDA-MB-435
CCRF-CEM leukemia = system: CCRF-CEM leukemia
HCC-2998 colon = system: HCC-2998 colon
SK-MEL-2 melanoma = system: SK-MEL-2 melanoma
COLO 205 colon = system: COLO 205 colon
RPMI-8226 leukemia = system: RPMI-8226 leukemia
OVCAR-3 ovarian = system: OVCAR-3 ovarian
SNB-19 CNS = system: SNB-19 CNS
HOP-92 NSCLC = system: HOP-92 NSCLC
PC-3 prostate = system: PC-3 prostate
NCI-H226 lung = system: NCI-H226 lung
KM12 colon = system: KM12 colon
SF-268 CNS = system: SF-268 CNS

Q: With `CN1CCN(c2ccc(C(=O)/C=C/c3ccc(OC(F)F)cc3)cc2)CC1` as the molecule, how does the GI50 (TK-10 renal) read?
A: 14.8 µM

Q: And the TGI (TK-10 renal)?
A: 29.6 µM

Q: What about the GI50 (MALME-3M melanoma) of the same molecule?
A: 13.1 µM

Q: What about the TGI (MALME-3M melanoma) of the same molecule?
A: 25.8 µM

Q: What about the GI50 (UACC-257 melanoma) of the same molecule?
A: 13.8 µM

Q: What about the TGI (UACC-257 melanoma) of the same molecule?
A: 27.2 µM

Q: And the GI50 (786-0 renal)?
A: 15.3 µM

Q: What about the TGI (786-0 renal) of the same molecule?
A: 39.6 µM

Q: And the GI50 (SN12C renal)?
A: 13.5 µM

Q: What about the TGI (SN12C renal) of the same molecule?
A: 26.3 µM

Q: What about the GI50 (BT-549 breast) of the same molecule?
A: 13 µM

Q: What about the TGI (BT-549 breast) of the same molecule?
A: 29 µM

Q: What about the GI50 (UO-31 renal) of the same molecule?
A: 11 µM

Q: And the TGI (UO-31 renal)?
A: 23 µM

Q: What about the GI50 (OVCAR-5 ovarian) of the same molecule?
A: 14.8 µM

Q: And the TGI (OVCAR-5 ovarian)?
A: 28.1 µM

Q: And the GI50 (SF-295 CNS)?
A: 12.3 µM

Q: And the TGI (SF-295 CNS)?
A: 24.7 µM

Q: And the GI50 (MDA-MB-468 breast)?
A: 3.52 µM

Q: And the TGI (MDA-MB-468 breast)?
A: 14.5 µM

Q: What about the GI50 (M14 melanoma) of the same molecule?
A: 12.3 µM

Q: And the TGI (M14 melanoma)?
A: 38.6 µM

Q: What about the GI50 (HOP-62 NSCLC) of the same molecule?
A: 15.4 µM

Q: What about the TGI (HOP-62 NSCLC) of the same molecule?
A: 30.4 µM

Q: And the GI50 (T-47D breast)?
A: 15.5 µM

Q: And the TGI (T-47D breast)?
A: 38.4 µM

Q: What about the GI50 (K-562 leukemia) of the same molecule?
A: 2.8 µM

Q: And the TGI (K-562 leukemia)?
A: > 100 µM

Q: And the GI50 (HT29 colon)?
A: 3.41 µM

Q: What about the TGI (HT29 colon) of the same molecule?
A: 15.3 µM

Q: And the GI50 (HS 578T breast)?
A: 14.9 µM

Q: And the TGI (HS 578T breast)?
A: 46.2 µM

Q: And the GI50 (SK-MEL-5 melanoma)?
A: 8.94 µM

Q: And the TGI (SK-MEL-5 melanoma)?
A: 21.1 µM

Q: And the GI50 (OVCAR-4 ovarian)?
A: 14.4 µM

Q: And the TGI (OVCAR-4 ovarian)?
A: 33.8 µM

Q: And the GI50 (U251 CNS)?
A: 9.79 µM

Q: And the TGI (U251 CNS)?
A: 27.5 µM

Q: What about the GI50 (NCI-H460 lung) of the same molecule?
A: 14.4 µM

Q: What about the TGI (NCI-H460 lung) of the same molecule?
A: 30.1 µM

Q: And the GI50 (SK-OV-3 ovarian)?
A: 13.9 µM

Q: And the TGI (SK-OV-3 ovarian)?
A: 27.6 µM

Q: What about the GI50 (HCT-15 colon) of the same molecule?
A: 6.88 µM

Q: And the TGI (HCT-15 colon)?
A: 19.7 µM

Q: What about the GI50 (LOX IMVI melanoma) of the same molecule?
A: 3.53 µM

Q: What about the TGI (LOX IMVI melanoma) of the same molecule?
A: 13 µM

Q: What about the GI50 (SNB-75 CNS) of the same molecule?
A: 4.85 µM

Q: And the TGI (SNB-75 CNS)?
A: 20.3 µM

Q: What about the GI50 (EKVX NSCLC) of the same molecule?
A: 13.1 µM

Q: What about the TGI (EKVX NSCLC) of the same molecule?
A: 25.8 µM

Q: And the GI50 (NCI-H522 lung)?
A: 15.4 µM

Q: And the TGI (NCI-H522 lung)?
A: 32.3 µM

Q: What about the GI50 (HCT-116 colon) of the same molecule?
A: 2.87 µM

Q: And the TGI (HCT-116 colon)?
A: > 100 µM

Q: What about the GI50 (DU-145 prostate) of the same molecule?
A: 13.6 µM

Q: What about the TGI (DU-145 prostate) of the same molecule?
A: 26.7 µM

Q: And the GI50 (CAKI-1 renal)?
A: 13.9 µM

Q: What about the TGI (CAKI-1 renal) of the same molecule?
A: 27.2 µM

Q: What about the GI50 (HL-60(TB) leukemia) of the same molecule?
A: 4.7 µM

Q: What about the TGI (HL-60(TB) leukemia) of the same molecule?
A: 33.4 µM

Q: And the GI50 (UACC-62 melanoma)?
A: 14 µM

Q: And the TGI (UACC-62 melanoma)?
A: 27 µM

Q: And the GI50 (SK-MEL-28 melanoma)?
A: 15.3 µM

Q: What about the TGI (SK-MEL-28 melanoma) of the same molecule?
A: 28.6 µM

Q: And the GI50 (SR leukemia)?
A: 1.96 µM

Q: What about the TGI (SR leukemia) of the same molecule?
A: > 100 µM

Q: And the GI50 (OVCAR-8 ovarian)?
A: 14.2 µM

Q: And the TGI (OVCAR-8 ovarian)?
A: 27.8 µM

Q: And the GI50 (RXF 393 renal)?
A: 4.34 µM

Q: What about the TGI (RXF 393 renal) of the same molecule?
A: 17.4 µM

Q: And the GI50 (NCI/ADR-RES ovarian)?
A: 13.9 µM

Q: What about the TGI (NCI/ADR-RES ovarian) of the same molecule?
A: 27.3 µM

Q: What about the GI50 (SF-539 CNS) of the same molecule?
A: 12.3 µM

Q: And the TGI (SF-539 CNS)?
A: 24.7 µM

Q: And the GI50 (SW-620 colon)?
A: 4.98 µM

Q: And the TGI (SW-620 colon)?
A: 18.5 µM

Q: What about the GI50 (A498 renal) of the same molecule?
A: 14.2 µM

Q: What about the TGI (A498 renal) of the same molecule?
A: 27.8 µM

Q: What about the GI50 (NCI-H23 lung) of the same molecule?
A: 11.8 µM

Q: What about the TGI (NCI-H23 lung) of the same molecule?
A: 24.3 µM

Q: And the GI50 (MOLT-4 leukemia)?
A: 11.6 µM

Q: And the TGI (MOLT-4 leukemia)?
A: 54.9 µM

Q: And the GI50 (ACHN renal)?
A: 14.8 µM

Q: And the TGI (ACHN renal)?
A: 27.9 µM

Q: What about the GI50 (A549 NSCLC) of the same molecule?
A: 11.7 µM

Q: What about the TGI (A549 NSCLC) of the same molecule?
A: 25.8 µM

Q: And the GI50 (MCF7 breast)?
A: 2.74 µM

Q: What about the TGI (MCF7 breast) of the same molecule?
A: 11 µM

Q: And the GI50 (MDA-MB-231 breast)?
A: 13.5 µM

Q: What about the TGI (MDA-MB-231 breast) of the same molecule?
A: 26.3 µM

Q: And the GI50 (IGROV1 ovarian)?
A: 12.1 µM

Q: What about the TGI (IGROV1 ovarian) of the same molecule?
A: 25.2 µM

Q: And the GI50 (MDA-MB-435)?
A: 3 µM

Q: And the TGI (MDA-MB-435)?
A: 10.7 µM

Q: And the GI50 (CCRF-CEM leukemia)?
A: 4.3 µM

Q: And the TGI (CCRF-CEM leukemia)?
A: 37.7 µM

Q: What about the GI50 (HCC-2998 colon) of the same molecule?
A: 3.76 µM

Q: What about the TGI (HCC-2998 colon) of the same molecule?
A: 14 µM

Q: And the GI50 (SK-MEL-2 melanoma)?
A: 16.6 µM

Q: What about the TGI (SK-MEL-2 melanoma) of the same molecule?
A: 31.9 µM

Q: What about the GI50 (COLO 205 colon) of the same molecule?
A: 14.2 µM

Q: And the TGI (COLO 205 colon)?
A: 30.9 µM

Q: And the GI50 (RPMI-8226 leukemia)?
A: 2.6 µM

Q: And the TGI (RPMI-8226 leukemia)?
A: 9.85 µM

Q: What about the GI50 (OVCAR-3 ovarian) of the same molecule?
A: 12.1 µM

Q: What about the TGI (OVCAR-3 ovarian) of the same molecule?
A: 25.5 µM

Q: And the GI50 (SNB-19 CNS)?
A: 14.7 µM

Q: And the TGI (SNB-19 CNS)?
A: 27.9 µM

Q: What about the GI50 (HOP-92 NSCLC) of the same molecule?
A: 6.21 µM

Q: What about the TGI (HOP-92 NSCLC) of the same molecule?
A: 20.9 µM

Q: What about the GI50 (PC-3 prostate) of the same molecule?
A: 10.3 µM

Q: And the TGI (PC-3 prostate)?
A: 26.5 µM

Q: And the GI50 (NCI-H226 lung)?
A: 10.8 µM

Q: And the TGI (NCI-H226 lung)?
A: 24.3 µM

Q: And the GI50 (KM12 colon)?
A: 5.2 µM

Q: What about the TGI (KM12 colon) of the same molecule?
A: 22.1 µM

Q: What about the GI50 (SF-268 CNS) of the same molecule?
A: 18 µM

Q: What about the TGI (SF-268 CNS) of the same molecule?
A: 41.3 µM
